# Laboratory results as given in patent publication US12571052B2, “Immunomodulatory RNA” (THE TRUSTEES OF THE UNIVERSITY OF PENNSYLVANIA, priority 2017, dated 2026).
# Entries after “also recorded” stand apart in the source; their conditions may differ.
# What was measured:
# recombinant RIG-I = target: T1, recombinant RIG-I (Homo sapiens, UniProt O95786); experiment: RIG-I ATPase assay (ATP hydrolysis); type: biochemical; settings: RNA added to recombinant RIG-I, equimolar amounts
# T1 sequence (O95786 1-925): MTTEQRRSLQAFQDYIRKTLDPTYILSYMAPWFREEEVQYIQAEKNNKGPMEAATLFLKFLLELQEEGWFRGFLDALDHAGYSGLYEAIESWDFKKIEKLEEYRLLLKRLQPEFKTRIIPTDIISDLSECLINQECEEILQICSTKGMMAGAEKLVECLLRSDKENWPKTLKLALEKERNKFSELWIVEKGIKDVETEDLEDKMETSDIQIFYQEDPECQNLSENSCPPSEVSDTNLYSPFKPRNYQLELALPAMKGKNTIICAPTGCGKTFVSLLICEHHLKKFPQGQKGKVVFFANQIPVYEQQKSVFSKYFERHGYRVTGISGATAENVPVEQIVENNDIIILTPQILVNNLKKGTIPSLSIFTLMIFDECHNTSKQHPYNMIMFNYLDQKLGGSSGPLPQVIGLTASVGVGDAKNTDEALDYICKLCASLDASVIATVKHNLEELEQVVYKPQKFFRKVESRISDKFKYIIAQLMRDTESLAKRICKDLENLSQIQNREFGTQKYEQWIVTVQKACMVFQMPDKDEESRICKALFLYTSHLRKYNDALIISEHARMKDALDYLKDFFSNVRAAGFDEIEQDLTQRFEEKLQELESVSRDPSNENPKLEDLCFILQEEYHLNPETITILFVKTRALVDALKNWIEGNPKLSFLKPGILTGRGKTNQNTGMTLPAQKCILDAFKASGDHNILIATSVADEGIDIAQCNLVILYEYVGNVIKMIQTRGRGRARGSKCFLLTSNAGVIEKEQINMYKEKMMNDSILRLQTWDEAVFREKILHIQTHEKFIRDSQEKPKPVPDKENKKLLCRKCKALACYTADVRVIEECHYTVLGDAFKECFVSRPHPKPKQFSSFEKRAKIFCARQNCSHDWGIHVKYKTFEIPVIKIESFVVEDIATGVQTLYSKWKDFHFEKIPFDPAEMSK
# Procedure: RIG-I ATPase Assays. RIG-I ATPase assays were performed as previously described (Devarkar et al. (2016) Proc. Natl. Acad. Sci. 113, 596-601). In brief, increasing amounts of RNA (10-60 nM) were added to a constant quantity of RIG-I (5 nM) in the presence of 1 mM ATP. ATP hydrolysis was measured with the EnzChek Phosphate Assay Kit (ThermoFisher) after 60-90 minutes at 37° C. ATP hydrolysis was then measured by absorbance of 360 nm compared to background. A 19-mer 5′triphosphate dsRNA (Invivogen) and DVG396 were used as positive controls and a 19-mer 5′OH dsRNA (Invivogen) and an in vitro transcribed 300 bp ssRNA stretch of GAPDH (GAPDH300) were used as negative controls.
# [1] = system: 1833 ISG-R breast cancer xenografts; experiment: Intratumoral injection into subcutaneous 1833 xenografts; type: in vivo, athymic nude mice
# Procedure: In Vivo Mouse Studies. For exosome injection studies, 1×10^6 1833 breast cancer cells were injected with Matrigel (Corning) into the flanks of 6-8 week old athymic nude mice and 10 μg of mono- or co-culture exosomes were directly injected into the tumors 3 times a week. For RNA injection studies, 50 ng of 7SL or GAPDH300 RNA encapsulated into RNAiMax liposomes were directly injected into the tumors 3 times a week. Subcutaneous tumor growth was measured by caliper. For lung colonization studies, 2×10^5 luciferase-labeled 4175 breast cancer cells were injected in the tail vein. Injections were confirmed by immediate imaging using a Xenogen IVIS 100 system. Serum was isolated from mice by cardiac puncture.
substance,measurement,setting,value
"RN7SL1: Human RN7SL1 (7SL, srpRNA) RNA, 5'ppp, in vitro transcribed or secreted unshielded in exosomes; SEQ ID NO: 2",RIG-I ATP helicase activity as measured by ATP hydrolysis,recombinant RIG-I,directly binds recombinant RIG-I; also recorded: comparable to an equimolar amount of Sendai virus-derived RNA (DVG396)
same,tumor growth,"[1]; 50 ng liposome-encapsulated RNA intratumorally 3 times a week, RIG-I WT tumors",enhance tumor growth in a RIG-I-dependent manner
same,tumor growth,"[1]; 50 ng liposome-encapsulated RNA intratumorally, RIG-I KO tumors",no effect was observed
same,ISG expression in tumors,"[1]; tumors expressing WT RIG-I, human specific primers",an increase in ISG expression
